Laboratory results reported in patent publication US20110039873A1, “SUBSTITUTED PYRAZOLO[1,5-a] PYRIDINE COMPOUNDS HAVING MULTI-TARGET ACTIVITY” (priority 2009, published 2011).
Where two headings read alike, the source gives them in different places.

Legend:
[1] = target: T1, recombinant full length human JNK3 enzyme (Homo sapiens, UniProt P53779); assay: JNK 3 inhibition assay (ATP depletion, luciferase); format: biochemical; conditions: for IC50: 10 uM ATP, ATF2 substrate; for JNK-3 inhibition (in words): see Table 2
T1 construct: recombinant full length human JNK2 or JNK3 enzyme; purchased Upstate; host or cells: Sf21 cells
T1 sequence (P53779 whole entry): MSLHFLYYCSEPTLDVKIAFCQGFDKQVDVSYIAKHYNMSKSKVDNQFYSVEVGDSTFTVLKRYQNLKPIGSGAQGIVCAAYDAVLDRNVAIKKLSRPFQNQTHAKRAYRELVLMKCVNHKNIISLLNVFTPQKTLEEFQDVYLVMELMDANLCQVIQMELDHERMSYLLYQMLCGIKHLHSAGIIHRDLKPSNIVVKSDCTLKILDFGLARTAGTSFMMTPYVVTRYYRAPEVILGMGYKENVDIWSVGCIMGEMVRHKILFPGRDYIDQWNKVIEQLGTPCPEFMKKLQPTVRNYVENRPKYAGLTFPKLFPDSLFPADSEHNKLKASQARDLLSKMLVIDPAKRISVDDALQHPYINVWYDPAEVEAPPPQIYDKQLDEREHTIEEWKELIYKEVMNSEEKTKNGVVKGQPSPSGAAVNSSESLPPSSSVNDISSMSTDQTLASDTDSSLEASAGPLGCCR
Experimental: In a 96-well plate, recombinant full length human JNK2 or JNK3 enzyme (40 ng) expressed in Sf21 cells (Upstate) was incubated with the substrate ATF2 (3 uM) for 1 hour in the presence of 10 uM ATP. […] The ATP levels were quantified using luciferase with luminescence read on a Victor Light 1420 luminometer. IC50 calculations were plotted using a nonlinear regression curve fit.

[2] = target: T2, recombinant full length human JNK2 enzyme (Homo sapiens, UniProt P45984); assay: JNK 2 inhibition assay (ATP depletion, luciferase); format: biochemical
T2 construct: recombinant full length human JNK2 or JNK3 enzyme; purchased Upstate; host or cells: Sf21 cells
T2 sequence (P45984 whole entry): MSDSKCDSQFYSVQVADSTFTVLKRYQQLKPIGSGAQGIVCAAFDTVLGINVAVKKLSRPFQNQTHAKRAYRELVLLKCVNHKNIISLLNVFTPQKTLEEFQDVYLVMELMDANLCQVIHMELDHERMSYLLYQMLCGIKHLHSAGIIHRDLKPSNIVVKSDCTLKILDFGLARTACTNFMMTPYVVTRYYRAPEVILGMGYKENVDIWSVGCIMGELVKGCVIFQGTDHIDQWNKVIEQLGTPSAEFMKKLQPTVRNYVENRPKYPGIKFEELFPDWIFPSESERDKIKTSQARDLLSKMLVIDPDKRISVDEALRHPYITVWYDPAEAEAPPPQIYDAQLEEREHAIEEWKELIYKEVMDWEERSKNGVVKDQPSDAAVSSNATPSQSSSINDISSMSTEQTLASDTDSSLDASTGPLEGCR
Experimental: In a 96-well plate, recombinant full length human JNK2 or JNK3 enzyme (40 ng) expressed in Sf21 cells (Upstate) was incubated with the substrate ATF2 (3 uM) for 1 hour in the presence of 10 uM ATP. […] IC50 calculations were plotted using a nonlinear regression curve fit.

[3] = target: T3, recombinant human phosphodiesterase 10A1 enzyme (Homo sapiens, UniProt Q9Y233); assay: PDE10 inhibition assay (PDELight); format: biochemical; conditions: for IC50: 1 uM cAMP, read-out: PDE 10 Inhibition (IC50 in μM); for PDE-10 inhibition (in words): Table 2
T3 construct: purchased BPS Biosciences; host or cells: Baculovirus infected Sf9 cells
T3 sequence (Q9Y233 1-779 isoform Q9Y233-1): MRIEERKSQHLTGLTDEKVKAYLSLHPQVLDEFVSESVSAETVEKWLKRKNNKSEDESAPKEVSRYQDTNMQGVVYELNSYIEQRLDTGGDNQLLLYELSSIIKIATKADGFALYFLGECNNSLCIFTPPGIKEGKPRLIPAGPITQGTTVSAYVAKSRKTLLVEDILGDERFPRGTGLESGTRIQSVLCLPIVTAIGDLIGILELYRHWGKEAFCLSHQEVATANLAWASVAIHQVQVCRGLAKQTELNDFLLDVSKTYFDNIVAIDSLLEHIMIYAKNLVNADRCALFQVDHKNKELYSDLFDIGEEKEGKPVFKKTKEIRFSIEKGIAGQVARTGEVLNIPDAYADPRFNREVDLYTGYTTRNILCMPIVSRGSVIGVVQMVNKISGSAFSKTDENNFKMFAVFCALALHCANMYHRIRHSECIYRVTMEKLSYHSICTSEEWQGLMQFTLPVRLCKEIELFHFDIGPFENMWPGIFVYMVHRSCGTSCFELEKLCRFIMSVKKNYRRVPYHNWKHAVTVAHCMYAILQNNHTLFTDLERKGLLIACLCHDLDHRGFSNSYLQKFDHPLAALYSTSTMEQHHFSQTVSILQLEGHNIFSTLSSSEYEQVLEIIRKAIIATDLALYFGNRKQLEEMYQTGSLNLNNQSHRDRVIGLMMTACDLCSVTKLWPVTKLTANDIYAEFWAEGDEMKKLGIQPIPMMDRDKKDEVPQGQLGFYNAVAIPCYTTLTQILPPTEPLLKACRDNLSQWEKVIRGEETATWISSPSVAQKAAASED

[4] = system: Mouse BV-2 microglial cells; assay: BV-2 glial cell assay (TNF-α and MCP-1 by Luminex); format: cell-based; conditions: for EC50: Mus musculus, BV-2, LPS and IFN-γ activated, 20 hours; for inhibiting glial cell activation (TNF-α and/or MCP-1): Table 3
Experimental: Mouse BV-2 microglial cells were seeded on 96-well plates at a concentration of 3×10^4 cells/well. Cells were activated with 100 ng/mL LPS and IFN-γ (100 ng/mL) in the presence or absence of test compounds (0-30 uM). Following incubation for 20 hours, cells were spun down and supernatant collected. The supernatant was analyzed via Luminex for the presence of TNF-α and MCP-1.

[5] = system: phosphorylated c-Jun (serine-73); assay: Phosphorylated c-JUN (6-OHDA), SH-SY5Y; format: cell-based; conditions: Homo sapiens, 50 uM 6-hydroxydopamine, 1.5 hours, read-out: p-cJun 6-OHDA SH-SY5Y (EC50 in μM)
Experimental: Human SH-SY5Y neuroblastoma cells were cultured in 96-well plates with 2.5×10^4 cells/well and incubated for 48 hours. 6-hydroxydopamine was added at a concentration of 50 uM in the presence or absence of test compounds (0-30 uM) and incubated for 1.5 hours. Supernatant was discarded and cells were fixed with 4% paraformaldehyde (100 ul/well) for 20 minutes. FACE cell based ELISA assay (Active Motif) was performed specific for quantifying phosphorlyated c-Jun (serine-73).

[6] = system: phosphorylated c-Jun (serine-73); assay: Phosphorylated c-JUN (A-beta), SH-SY5Y; format: cell-based; conditions: Homo sapiens
Experimental: In 96-well plates either human SH-SY5Y neuroblastoma cells at 2.5×10^4 cells/well or E18 rat neuronal cells at 1.5×10^4 cells/well were seeded. […] Supernatant was discarded and cells were fixed with 4% paraformaldehyde (100 ul/well) for 20 minutes. FACE cell based ELISA assay (Active Motif) was performed specific for quantifying phosphorlyated c-Jun (serine-73).

[7] = system: phosphorylated c-Jun (serine-73); assay: Phosphorylated c-JUN (A-beta), E18 rat neuronal cells; format: cell-based; conditions: Amyloid Beta peptide 30 uM, 3 hours, read-out: p-cJun Abeta E18 (EC50 in μM)
Experimental: In 96-well plates either human SH-SY5Y neuroblastoma cells at 2.5×10^4 cells/well or E18 rat neuronal cells at 1.5×10^4 cells/well were seeded. To each well the following was added, Amyloid Beta peptide 1-25 (source) at a concentration of 30 uM, retinoic acid (10 uM) and test compounds (0-30 uM) and incubated for 3 hours. Supernatant was discarded and cells were fixed with 4% paraformaldehyde (100 ul/well) for 20 minutes. FACE cell based ELISA assay (Active Motif) was performed specific for quantifying phosphorlyated c-Jun (serine-73).

[8] = Oral pharmacokinetic evaluation; format: in vivo, rat; conditions: Sprague-Dawley rats; for half-life / AUC(0-t) / Cmax: male, rat, plasma; for half-life: Sprague-Dawley, po, 15 mg/kg; for AUC(0-t): read-out: Oral PK AUClast; for Cmax: read-out: Oral PK Cmax
Experimental: Three male Sprague-Dawley rats were dosed orally via gavage with 15 mg/kg of test compound. Serial blood samples were collected from the jugular vein at 5, 15, and 30 min, 1, 3, and 6 hours post dosing. Samples were processed for plasma via centrifugation and plasma samples were stored frozen prior to analysis via a sensitive and specific HPLC/MS/MS method. PK parameters were calculated using WinNonLin (Pharsight).

[9] = system: rat chronic constriction injury (CCI) model of neuropathic pain; assay: Rat chronic constriction injury (CCI) model of neuropathic pain; format: in vivo; conditions: for IP CCI efficacy (Change in grams): dose not given, 50% paw withdrawal threshold, von Frey
[10] = 10 uM ATP, ATF2 substrate, read-out: JNK 2 Inhibition (IC50 in μM)
[11] = read-out: MCP-1 BV-2 (EC50 in μM)
[12] = read-out: TNF-a BV-2 (EC50 in μM)
[13] = Amyloid Beta peptide 30 uM, 3 hours, read-out: p-cJun Abeta SH-SY5Y (EC50 in μM)
[14] = 15 mg/kg oral gavage, read-out: Oral PK T½ (converted)
[15] = read-out: IC50 value based upon a JNK 2 inhibition assay (range given)
[16] = read-out: p-cJun SH-SY5Y (EC50 in μM), no Abeta

Compound | IC50 [1] [µM] | IC50 [2, 10] [µM] | IC50 [3] [µM] | PDE-10 inhibition (in words) [3] | EC50 [4, 11] [µM] | EC50 [4, 12] [µM] | inhibiting glial cell activation (TNF-α and/or MCP-1) [4] | EC50 [5] [µM] | EC50 [6, 13] [µM] | EC50 [7] [µM] | half-life [8, 14] [h] | AUC(0-t) ([8]; 15 mg/kg oral gavage) [ng·h/mL] | Cmax ([8]; 15 mg/kg oral gavage) [ng/mL] | IP CCI efficacy (Change in grams) [9] [grams] | JNK-3 inhibition (in words) [1] | IC50 [2, 15] [µM] | EC50 [6, 16] [µM] | other results
CC(C)Nc1nccc(-c2c(C(C)C)nn3ccccc23)n1 [AV1137, N-isopropyl-4-(2-isopropylpyrazolo[1,5-a]pyridin-3-yl)pyrimidin-2-amine] | 2.6 | 1.6 | 9.9 | particularly effective | 1.1 | 1.2 | Particularly effective | 6.1 | > 30 | 3 | 1.2 | 52 | 26 | 3.26 | – | – | – | PO CCI efficacy (Change in grams) ([9]; 75 mg/kg): 0.94 (75 mg/kg) grams
CC(C)Nc1nccc(-c2cnn3ccccc23)n1 [AV1164, N-isopropyl-4-(pyrazolo[1,5-a]pyridin-3-yl)pyrimidin-2-amine] | 0.3 | 0.5 | 5.8 | particularly effective | 4.9 | 0.4 | Particularly effective | 3.1 | 2.9 | 1.4 | – | 12 | 17 | 1.56 | particularly effective | 0.01 to 2 | 1.1 | –
c1ccn2ncc(-c3ccnc(NC4CCCC4)n3)c2c1 [AV1165, N-cyclopentyl-4-(pyrazolo[1,5-a]pyridin-3-yl)pyrimidin-2-amine] | 0.2 | 0.4 | 7.5 | particularly effective | 0.6 | 0.2 | Particularly effective | 1.1 | – | 15 | – | < 5 | – | 0.44 | particularly effective | 0.01 to 2 | 7.6 | –
CC(C)Nc1nccc(-c2c(C3CC3)nn3ccccc23)n1 [AV1173, 4-(2-cyclopropylpyrazolo[1,5-a]pyridin-3-yl)-N-isopropylpyrimidin-2-amine] | 1.2 | 0.3 | 7.4 | particularly effective | 0.7 | 1.4 | Particularly effective | 7.7 | – | – | 9.4 | 462 | 122 | 2.5 | particularly effective | 0.01 to 2 | – | half life following oral dosing (in words) ([8]; oral): particularly prolonged half lives; half-life ([8]; oral, read-out: half life following oral dosing): > 3 h; PO CCI efficacy (Change in grams) ([9]; 30 mg/kg): 1.6 (30 mg/kg) grams; reversal of allodynia ([9]; oral dosing, multi-day, 24 hr time-points, FIG. 6): capable of reversing allodynia and sustaining the efficacy overnight
